Data as given in US9023821B2, “Use of MicroRNA for treating diseases associated with a dysfunction of the cilia in multiciliated epithelial cells” (Centre National de la Recherche Scientifique, priority 2009, dated 2015).

Columns and labels:
[1] = tested on: human airway epithelial cells (HAECs); test: Agilent miRNA chips, miRNA expression at four stages of differentiation of HAECs; conditions: for Modulation (ratio of the level of intensity of expression in log2 in two stages of differentiation) measured with the Agilent chips, D7 − D0 / Modulation (ratio of the level of intensity of expression in log2 in two stages of differentiation) measured with the Agilent chips, FC − D7 / Modulation (ratio of the level of intensity of expression in log2 in two stages of differentiation) measured with the Agilent chips, WD − D0 / Modulation (ratio of the level of intensity of expression in log2 in two stages of differentiation) measured with the Agilent chips, WD − FC / Level of intensity of expression in log2 measured with the Agilent chips, D0 / Level of intensity of expression in log2 measured with the Agilent chips, D7 / Level of intensity of expression in log2 measured with the Agilent chips, FC / Level of intensity of expression in log2 measured with the Agilent chips, WD: Table VI; for Level of intensity of expression in log2 measured with the Agilent chips, D0: stage D0; for Level of intensity of expression in log2 measured with the Agilent chips, D7: stage D7; for Level of intensity of expression in log2 measured with the Agilent chips, FC: stage FC; for Level of intensity of expression in log2 measured with the Agilent chips, WD: stage WD
In short: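 Arrays probing 866 human and 89 human viral miRNAs were used in parallel with sequencing. The same patients' RNA was labelled and hybridized following the manufacturer's protocol.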

[2] = tested on: basal cells and pyramidal cells of the airway epithelium; test: miRNA expression in sorted basal cells versus pyramidal cells (ciliated + secretory), HTS and Agilent chips; design: species or system human; conditions: for Modulation of expression of the miRNAs in pyramidal cells (323(−)) relative to basal cells 323(+): HTS and Agilent chips; for Intensity of the level of expression in log2 in pyramidal cells (323(−)): pyramidal cells (ciliated + secretory)
In short: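 Epithelium dissociated from nasal polyps is held 30 min in PBS-BSA-EDTA, then labelled 20 min at 4° C for CD151 and tissue factor. After DAPI staining, live single cells are sorted into marker-double-positive and double-negative fractions, and sort purity and identity are verified. Total RNA then undergoes miRNA profiling on arrays or by sequencing.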

[3] = tested on: human airway epithelial cells (HAECs); test: High-throughput sequencing (HTS) of miRNAs at four stages of differentiation of HAECs; conditions: for Modulation (ratio of the level of intensity of expression in log2 in two stages of differentiation) measured by high-throughput sequencing, D7 − D0 / Modulation (ratio of the level of intensity of expression in log2 in two stages of differentiation) measured by high-throughput sequencing, FC − D7 / Modulation (ratio of the level of intensity of expression in log2 in two stages of differentiation) measured by high-throughput sequencing, WD − D0 / Modulation (ratio of the level of intensity of expression in log2 in two stages of differentiation) measured by high-throughput sequencing, WD − FC / Level of intensity of expression in log2 measured by high-throughput sequencing, D0 / Level of intensity of expression in log2 measured by high-throughput sequencing, D7 / Level of intensity of expression in log2 measured by high-throughput sequencing, FC / Level of intensity of expression in log2 measured by high-throughput sequencing, WD: Table VI; for Level of intensity of expression in log2 At the differentiated stage (WD) measured in HTS: healthy human airway epithelial tissue; for Level of intensity of expression in log2 measured by high-throughput sequencing, D0: stage D0; for Level of intensity of expression in log2 measured by high-throughput sequencing, D7: stage D7; for Level of intensity of expression in log2 measured by high-throughput sequencing, FC: stage FC; for Level of intensity of expression in log2 At the differentiated stage (WD) measured in HTS / Level of intensity of expression in log2 measured by high-throughput sequencing, WD: stage WD
In short: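 Small-RNA libraries from differentiating HAECs (ALI-D0 to ALI-WD) were built by ligation-based SOLiD chemistry, size-selected and sequenced. Strand counts were normalized per million reads, converted to percentage abundance, and filtered on adjusted P-value below 0.05.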

Substance	Modulation (ratio of the level of intensity of expression in log2 in two stages of differentiation) measured with the Agilent chips, D7 − D0 [1] [log2]	Modulation (ratio of the level of intensity of expression in log2 in two stages of differentiation) measured with the Agilent chips, FC − D7 ([1]; FC − D7) [log2]	Modulation (ratio of the level of intensity of expression in log2 in two stages of differentiation) measured with the Agilent chips, WD − D0 [1] [log2]	Modulation (ratio of the level of intensity of expression in log2 in two stages of differentiation) measured with the Agilent chips, WD − FC ([1]; WD − FC) [log2]	Level of intensity of expression in log2 measured with the Agilent chips, D0 [1] [log2]	Level of intensity of expression in log2 measured with the Agilent chips, D7 [1] [log2]	Level of intensity of expression in log2 measured with the Agilent chips, FC [1] [log2]	Level of intensity of expression in log2 measured with the Agilent chips, WD [1] [log2]	Modulation of expression of the miRNAs in pyramidal cells (323(−)) relative to basal cells 323(+) [2]	Intensity of the level of expression in log2 in basal cells (323(+)) [2] [log2]	Intensity of the level of expression in log2 in pyramidal cells (323(−)) [2] [log2]	Modulation (ratio of the level of intensity of expression in log2 in two stages of differentiation) measured by high-throughput sequencing, D7 − D0 [3] [log2]	Modulation (ratio of the level of intensity of expression in log2 in two stages of differentiation) measured by high-throughput sequencing, FC − D7 [3] [log2]	Modulation (ratio of the level of intensity of expression in log2 in two stages of differentiation) measured by high-throughput sequencing, WD − D0 [3] [log2]	Modulation (ratio of the level of intensity of expression in log2 in two stages of differentiation) measured by high-throughput sequencing, WD − FC [3] [log2]	Level of intensity of expression in log2 At the differentiated stage (WD) measured in HTS [3] [log2]	Level of intensity of expression in log2 measured by high-throughput sequencing, D0 [3] [log2]	Level of intensity of expression in log2 measured by high-throughput sequencing, D7 [3] [log2]	Level of intensity of expression in log2 measured by high-throughput sequencing, FC [3] [log2]	Level of intensity of expression in log2 measured by high-throughput sequencing, WD [3] [log2]	also measured
hsa-miR-140-3p: human miRNA, SEQ ID No. 5 (UACCACAGGGUAGAACCACGG; expressed or natural sequence; listed as Homo sapiens)	1.54	−0.08	1.52	0.06	3.55	5.09	5.01	5.07	0.91	2.75	3.66	0.33	0.37	0.73	0.04	13.12	12.39	12.72	13.08	13.12	Modulation (ratio of the level of intensity of expression in log2 in two stages of differentiation), D7 − D0 ([3]; HTS): 0.33 log2; Modulation (ratio of the level of intensity of expression in log2 in two stages of differentiation), FC − D7 ([3]; HTS): 0.37 log2; Modulation (ratio of the level of intensity of expression in log2 in two stages of differentiation), WD − FC ([3]; HTS): 0.04 log2; Abundance (%), D0 ([3]; HTS, ALI-D0): 1.17%; Abundance (%), D7 ([3]; HTS, ALI-D7): 1.48%; Abundance (%), FC ([3]; HTS, ALI-FC): 1.85%; Abundance (%), WD ([3]; HTS, ALI-WD): 1.44%
hsa-miR-141: human miRNA, SEQ ID No. 6 (UAACACUGUCUGGUAAAGAUGG; expressed or natural sequence; listed as Homo sapiens)	2.16	−0.28	1.88	0.00	11.15	13.31	13.03	13.03	−2.88	11.12	8.24	1.17	0.37	1.70	0.17	9.75	8.05	9.22	9.58	9.75	Modulation (ratio of the level of intensity of expression in log2 at two stages of differentiation), FC − D7 ([1]; FC − D7, Agilent miRNA chips, Table V): −0.28 log2; Modulation (ratio of the level of intensity of expression in log2 at two stages of differentiation), WD − FC ([1]; WD − FC, Agilent miRNA chips, Table V): 0.00 log2
